Measurements as given in PubChem BioAssay AID192 (DTP/NCI, 2004).
“And” between values parts separate entries of the source, which are not always exact repeats. Equal entries are not always repeated. Toxic doses and inconclusive results are not listed. The calls were made as follows: active = survival T/C of 150% or more; inactive = T/C below 125% in these data.

Tested on: BDF1 mice, B16 melanoma ip, median survival T/C
Experiment: NCI In Vivo Anticancer Drug Screen. Data for tumor model B16 Melanoma (intraperitoneal) in B6D2F1 (BDF1) mice
Settings: endpoint: median survival time, higher = longer survival
Summary of the method: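 The ratio T/C compares compound-treated mice with vehicle-treated controls, using survival or tumor size as the endpoint in a transplantable tumor model.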

[1] = dose: 6.25 mg/kg/injection, schedule: Q01DX009 (ip), vehicle: Klucel (hydroxypropylcellulose) (HPC)
[2] = dose: 12.5 mg/kg/injection, schedule: Q01DX009 (ip), vehicle: Klucel (hydroxypropylcellulose) (HPC)
[3] = dose: 25.0 mg/kg/injection, schedule: Q01DX009 (ip), vehicle: Klucel (hydroxypropylcellulose) (HPC)
[4] = dose: 2.0 mg/kg/injection, schedule: Q01DX009 (ip), vehicle: saline with Tween-80
[5] = dose: 4.0 mg/kg/injection, schedule: Q01DX009 (ip), vehicle: saline with Tween-80
[6] = dose: 6.25 mg/kg/injection, schedule: Q01DX009 (ip), vehicle: saline
[7] = dose: 12.5 mg/kg/injection, schedule: Q01DX009 (ip), vehicle: saline
[8] = dose: 25.0 mg/kg/injection, schedule: Q01DX009 (ip), vehicle: saline
[9] = dose: 50.0 mg/kg/injection, schedule: Q01DX009 (ip), vehicle: saline
[10] = dose: 50.0 mg/kg/injection, schedule: Q01DX009 (ip), vehicle: Klucel (hydroxypropylcellulose) (HPC)
[11] = dose: 100.0 mg/kg/injection, schedule: Q01DX009 (ip), vehicle: saline with Tween-80
[12] = dose: 100.0 mg/kg/injection, schedule: Q01DX009 (ip), vehicle: Klucel (hydroxypropylcellulose) (HPC)
[13] = dose: 200.0 mg/kg/injection, schedule: Q01DX009 (ip), vehicle: Klucel (hydroxypropylcellulose) (HPC)

Measured: T/C

CCC1=C[C@H]2CN(CCc3c([nH]c4ccccc34)[C@@](C(=O)OC)(c3cc4c(cc3OC)N(C)[C@H]3[C@@](O)(C(=O)OC)[C@H](OC(C)=O)[C@]5(CC)C=CCN6CC[C@]43[C@@H]65)C2)C1
active: dose: 0.8 mg/kg/injection, schedule: Q01DX009 (ip), vehicle: saline 181 % of control | dose: 1.6 mg/kg/injection, schedule: Q01DX009 (ip), vehicle: saline 208 % of control | dose: 4.0 mg/kg/injection, schedule: Q04DX003 (ip), vehicle: water 175 % of control
inactive: dose: 0.05 mg/kg/injection, schedule: Q01DX009 (ip), vehicle: saline 116 % of control | dose: 0.06 mg/kg/injection, schedule: Q01DX009 (ip), vehicle: water 100 % of control and 107 % of control | dose: 0.1 mg/kg/injection, schedule: Q01DX009 (ip), vehicle: saline 116 % of control | dose: 0.13 mg/kg/injection, schedule: Q01DX009 (ip), vehicle: water 103 % of control and 120 % of control | dose: 0.25 mg/kg/injection, schedule: Q01DX009 (ip), vehicle: water 108 % of control

Cc1c2cccc(F)c2c[n+]2ccccc12
inactive: [1] 100 % of control | [2] 100 % of control | [3] 106 % of control

COc1ccc(CC2C(=O)NC(C)C(=O)N(C)C3Cc4ccc(cc4)Oc4cc(ccc4O)CC(C(=O)NC(C)C(=O)NC(C)C(=O)N2C)N(C)C3=O)cc1 (configuration not stated)
inactive: dose: 0.25 mg/kg/injection, schedule: Q01DX009 (ip), vehicle: saline with Tween-80 117 % of control | dose: 0.5 mg/kg/injection, schedule: Q01DX009 (ip), vehicle: saline with Tween-80 122 % of control
active: [4] 152 % of control | [5] 175 % of control | dose: 8.0 mg/kg/injection, schedule: Q01DX009 (ip), vehicle: saline with Tween-80 154 % of control

CNCC(C)CN1CCCCCc2ccccc21 (configuration not stated)
inactive: dose: 3.12 mg/kg/injection, schedule: Q01DX009 (ip), vehicle: saline 102 % of control | [6] 100 % of control | [7] 95 % of control | [8] 100 % of control | [9] 113 % of control

CCCCCCCCCCCCCCCC(=O)OCC1OC(n2ccc(N)nc2=O)C(O)C1O (configuration not stated)
active: dose: 30.0 mg/kg/injection, schedule: Q01DX009 (ip), vehicle: saline with Tween-80 170 % of control | dose: 37.5 mg/kg/injection, schedule: Q01DX001 (ip), vehicle: saline 152 % of control | dose: 75.0 mg/kg/injection, schedule: Q01DX001 (ip), vehicle: saline 186 % of control
inactive: dose: 1.0 mg/kg/injection, schedule: Q01DX009 (ip), vehicle: saline with Tween-80 103 % of control | [4] 114 % of control | dose: 2.5 mg/kg/injection, schedule: Q01DX001 (ip), vehicle: saline with Tween-80 99 % of control | [5] 116 % of control | dose: 5.0 mg/kg/injection, schedule: Q01DX001 (ip), vehicle: saline with Tween-80 100 % of control | dose: 10.0 mg/kg/injection, schedule: Q01DX001 (ip), vehicle: saline with Tween-80 110 % of control | dose: 20.0 mg/kg/injection, schedule: Q01DX001 (ip), vehicle: saline with Tween-80 104 % of control | dose: 25.0 mg/kg/injection, schedule: Q04DX003 (ip), vehicle: saline with Tween-80 122 % of control

N#CCCN(C(=O)COc1ccc(Cl)cc1Cl)C1CCCCC1
inactive: [2] 99 % of control | [3] 103 % of control | [10] 98 % of control

NC(=S)N/N=C\c1nccc2c(N)cccc12
inactive: dose: 6.25 mg/kg/injection, schedule: Q01DX009 (ip), vehicle: saline with Tween-80 115 % of control and 120 % of control | dose: 12.5 mg/kg/injection, schedule: Q01DX009 (ip), vehicle: saline with Tween-80 119 % of control
active: [6] 160 % of control | [7] 172 % of control | dose: 18.8 mg/kg/injection, schedule: Q04DX003 (ip), vehicle: saline 155 % of control | dose: 25.0 mg/kg/injection, schedule: Q01DX009 (ip), vehicle: saline with Tween-80 156 % of control | [8] 179 % of control | dose: 37.5 mg/kg/injection, schedule: Q04DX003 (ip), vehicle: saline 168 % of control | dose: 50.0 mg/kg/injection, schedule: Q01DX009 (ip), vehicle: saline with Tween-80 164 % of control and 175 % of control | [9] 197 % of control | dose: 75.0 mg/kg/injection, schedule: Q01DX009 (ip), vehicle: saline with Tween-80 150 % of control and 153 % of control and 165 % of control | dose: 75.0 mg/kg/injection, schedule: Q04DX003 (ip), vehicle: saline 168 % of control | dose: 150.0 mg/kg/injection, schedule: Q04DX003 (ip), vehicle: saline 179 % of control

N#CCCc1ccccc1
inactive: dose: 3.13 mg/kg/injection, schedule: Q01DX009 (ip), vehicle: saline 100 % of control | [6] 97 % of control | [7] 100 % of control

CC(=O)Nc1ccc([N+](=O)[O-])cc1
inactive: dose: 12.5 mg/kg/injection, schedule: Q01DX009 (ip), vehicle: alcohol 95 % of control | dose: 25.0 mg/kg/injection, schedule: Q01DX009 (ip), vehicle: alcohol 102 % of control | dose: 50.0 mg/kg/injection, schedule: Q01DX009 (ip), vehicle: alcohol 93 % of control | [11] 88 % of control

C[C@]12CC[C@@H]3c4ccc(O)cc4CC[C@H]3[C@@H]1CC[C@@H]2O
inactive: [1] 97 % of control | [2] 94 % of control | [3] 93 % of control | [10] 97 % of control | [12] 88 % of control | [13] 87 % of control

CS(=O)(=O)Nc1ccc(Nc2c3ccccc3nc3cc([N+](=O)[O-])ccc23)cc1
active: dose: 2.5 mg/kg/injection, schedule: Q01DX009 (ip), vehicle: saline sonified 154 % of control | dose: 50.0 mg/kg/injection, schedule: Q01DX001 (ip), vehicle: saline sonified 158 % of control
inactive: dose: 0.6 mg/kg/injection, schedule: Q01DX009 (ip), vehicle: saline sonified 112 % of control

COC(=O)[C@H]1[C@H]2C[C@@H]3c4[nH]c5cc(OC)ccc5c4CCN3C[C@H]2C[C@@H](OC(=O)/C=C/c2cc(OC)c(OC)c(OC)c2)[C@@H]1OC
inactive: dose: 0.09 mg/kg/injection, schedule: Q01DX009 (ip), vehicle: Klucel (hydroxypropylcellulose) (HPC) 90 % of control | dose: 0.19 mg/kg/injection, schedule: Q01DX009 (ip), vehicle: Klucel (hydroxypropylcellulose) (HPC) 94 % of control | dose: 0.39 mg/kg/injection, schedule: Q01DX009 (ip), vehicle: Klucel (hydroxypropylcellulose) (HPC) 94 % of control and 100 % of control | dose: 0.78 mg/kg/injection, schedule: Q01DX009 (ip), vehicle: Klucel (hydroxypropylcellulose) (HPC) 86 % of control and 90 % of control | dose: 1.56 mg/kg/injection, schedule: Q01DX009 (ip), vehicle: Klucel (hydroxypropylcellulose) (HPC) 87 % of control and 93 % of control

CN(C1=NS(=O)(=O)N=C(N(C)c2ccccc2)O1)c1ccccc1
inactive: [3] 101 % of control | [10] 108 % of control | [12] 96 % of control | [13] 93 % of control | dose: 400.0 mg/kg/injection, schedule: Q01DX009 (ip), vehicle: Klucel (hydroxypropylcellulose) (HPC) 87 % of control

Oc1ccc(/C=N\N=C\c2ccc(O)cc2)cc1
inactive: [11] 95 % of control | dose: 200.0 mg/kg/injection, schedule: Q01DX009 (ip), vehicle: saline with Tween-80 90 % of control

CC/C(=C/C(F)(F)C(F)(F)C(F)(F)F)[N+](=O)[O-]
inactive: [2] 101 % of control | [3] 87 % of control | [10] 87 % of control

O=[N+]([O-])c1cccc2c(S(=O)(=O)O)cccc12
inactive: [9] 113 % of control | dose: 100.0 mg/kg/injection, schedule: Q01DX009 (ip), vehicle: saline 110 % of control | dose: 200.0 mg/kg/injection, schedule: Q01DX009 (ip), vehicle: saline 91 % of control
